Experimental data from US8298781B2, “Compositions and methods for characterizing and regulating olfactory sensation” (Duke University, priority 2007, dated 2012).

Key:
human subjects [1] = test: Human olfactory psychophysics: intensity rating by OR7D4 genotype; assay type: in vivo; details: for intensity rating, OR7D4 RT/WM vs RT/RT subjects: 7-point scale, two concentrations pooled, N=100 RT/WM, N=255 RT/RT; for intensity rating, RT/S84N subjects vs RT/RT controls: N=7 RT/S84N; for reduction in odor intensity, OR7D4 WM/WM subjects: N=10 WM/WM, compared with RT/WM; for intensity rating, RT/P79L subjects vs RT/RT controls: N=30 RT/P79L
Description: Human olfactory psychophysics. All human subjects gave informed consent to participate in this study and were tested in a well-ventilated room. Normal human subjects (n=412; 218 female, 194 male; median age 34, age range 19-75) were pre-screened to exclude pregnant women and those with medical conditions causing general impairment of the sense of smell. All subjects completed two replicates of the test separated by at least 4 days. Odors were presented in amber vials as previously described (see, e.g., Keller, A., et al., Nat Neurosci 7, 337-338 (2004); herein incorporated by reference in its entirety) using bar-coded symbols to ensure that subjects were blind to the identity of all odors. The intensity and valence of 66 odors at two concentrations (“high” and “low”) and two solvents was rated using a 7-point scale. Thresholds were calculated using the single staircase method with seven reversals (see, e.g., Doty, R. L., et al., Chem Senses 20, 645-656 (1995); Doty, R. L. & Laing, D. G. in Handbook of Olfaction and Gustation (ed. Doty, R. L.) pp. 203-228 (Marcel Dekker, Inc., New York, 2003); each of which are herein incorporated by reference in their entireties). Threshold tests included both steroids as binary dilutions from […] (binary dilution 6) to 1: 134,217,728 (binary dilution 27). Subjects who could not reliably distinguish a 1:64 dilution of androstenone and androstadienone from solvent were operationally defined as anosmic to these odorous steroids, although it could not be excluded that these subjects could detect higher concentrations of these steroids (see, e.g., Bremner, E. A., et al., Chem Senses 28, 423-432 (2003); herein incorporated by reference in its entirety). Odor profiling used the method established by Dravnieks, et al. (see, e.g., Dravnieks, A., et al., Science 218, 799-801 (1982); herein incorporated by reference in its entirety).
Stimuli for olfactory psychophysics. All odors were presented as one ml of an odor dilution in either propylene glycol or paraffin oil in 20 ml amber glass vials. All of these compounds were used in the intensity and valence rating portion of the smell test.
Olfactory ratings. The intensity and valence of 66 odors were rated at two different concentrations (high and low) and the intensity and valence of the two solvents (paraffin oil and propylene glycol) was rated three times. Prior to these ratings, six stimuli that represented the spectrum of intensity and valence of the stimuli used in the study were presented to allow the subjects to calibrate the usage of the scale. The subjects were unaware that the six first stimuli served that purpose. After the rating of the 66 odors at two concentrations and the rating of the solvents, 15 stimuli that were presented earlier in the experiment were repeated to test for the effect of adaptation and olfactory fatigue on the ratings. The subjects were not aware that the last 15 stimuli served this purpose. These 15 stimuli and the six first stimuli were not included in the analysis presented here. […] The 15 control stimuli and their concentrations were as follows:
In addition there was a button on the screen labeled “I can't smell anything” and a button labeled “Don't Know”. If the “Don't Know” button was pressed, no rating was recorded. If the “I can't smell anything” button was pressed, a 0 was recorded for the intensity rating and no rating was recorded for the valence rating. The other ratings were transformed according to the following scheme:
• Extremely Weak=1 • Very Weak=2 • Slightly Weak=3 • Neither Weak nor Strong=4 • Slightly Strong=5 • Very Strong=6 • Extremely Strong=7 Valence Rating • Extremely Unpleasant=1 • Very Unpleasant=2 • Slightly Unpleasant=3 • Neither Unpleasant nor Pleasant=4 • Slightly Pleasant=5 • Very Pleasant=6 • Extremely Pleasant=7
Averages for the ratings of the different genotypes were calculated. […]

cortisol levels = details: Wyart et al. 2007; cited from earlier work
human subjects [2] = test: Human olfactory psychophysics: odor profiling with 146 descriptors; assay type: in vivo; details: androstenone 1/10,000
Description: Human olfactory psychophysics. All human subjects gave informed consent to participate in this study and were tested in a well-ventilated room. Normal human subjects (n=412; 218 female, 194 male; median age 34, age range 19-75) were pre-screened to exclude pregnant women and those with medical conditions causing general impairment of the sense of smell. All subjects completed two replicates of the test separated by at least 4 days. Odors were presented in amber vials as previously described (see, e.g., Keller, A., et al., Nat Neurosci 7, 337-338 (2004); herein incorporated by reference in its entirety) using bar-coded symbols to ensure that subjects were blind to the identity of all odors. The intensity and valence of 66 odors at two concentrations (“high” and “low”) and two solvents was rated using a 7-point scale. Thresholds were calculated using the single staircase method with seven reversals (see, e.g., Doty, R. L., et al., Chem Senses 20, 645-656 (1995); Doty, R. L. & Laing, D. G. in Handbook of Olfaction and Gustation (ed. Doty, R. L.) pp. 203-228 (Marcel Dekker, Inc., New York, 2003); each of which are herein incorporated by reference in their entireties). Threshold tests included both steroids as binary dilutions from […] (binary dilution 6) to 1: 134,217,728 (binary dilution 27). […]
Assigning descriptors to odors. Subjects assessed the quality of six odors using an odor profiling method that has shown to produce stable profiles of odorants. […] Odor profiling typically took five minutes per odorant and was performed as a computer-controlled selftest in which the subject's responses were directly recorded. […] The descriptors used to describe the other four odors (vanillin, pentadecalactone, androstenone, and propylene glycol) were evaluated. […]

humans = details: literature; cited from earlier work

SMILES | intensity rating, OR7D4 RT/WM vs RT/RT subjects (human subjects [1]) | intensity rating, RT/S84N subjects vs RT/RT controls (human subjects [1]) | reduction in odor intensity, OR7D4 WM/WM subjects (human subjects [1]) | intensity rating, RT/P79L subjects vs RT/RT controls (human subjects [1]) | cortisol levels in women smelling the odor vs women not smelling it (cortisol levels) | use of descriptor "sickening", OR7D4 RT/WM vs RT/RT subjects (human subjects [2]) | use of descriptor "vanilla", OR7D4 RT/WM vs RT/RT subjects (human subjects [2]) | humans fitting the criteria of specific anosmia (humans) [%] | humans with reduced sensitivity (humans)
C[C@@]12C=CC[C@H]1[C@@H]1CCC3=CC(=O)CC[C@]3(C)[C@H]1CC2 [androstadienone, androsta-4,16-dien-3-one] | less intense | more intense | more marked | less intense | maintained at higher levels |  |  |  | 
C[C@]12CCC(=O)C[C@@H]1CC[C@@H]1[C@@H]2CC[C@]2(C)C=CC[C@@H]12 [androstenone, 5α-androst-16-en-3-one] | less intense | more intense | more marked | less intense |  | less likely | more likely | 6 | Up to 30%
